In PubChem BioAssay AID1963424 (Molecular Pharmacology Branch, DTP, NCI, 2024):

Test system: 327498-153-R-J2-PDC complex spheroid growth, % test/control
Test: Anticancer human tumor 327498-153-R-J2-PDC patient-derived uterine carcinosarcoma cell line growth inhibition [Asc]
Conditions: for IC50: curve of first compound; for viability, T/C: stronger effect = lower value
Outline: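 Tumor cells were grown as complex spheroids with human endothelial cells (HUVEC) and human mesenchymal stem cells as stroma. Agents were tested alone and in combination, in half-log steps down from the clinical Cmax, or from 10 microM where Cmax was unknown.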

[1] = second compound 0.1 µM, first compound 0.0316 µM
[2] = second compound 0.1 µM, first compound 0.1 µM
[3] = second compound 0.1 µM, first compound 0.316 µM
[4] = second compound 0.1 µM, first compound 1 µM
[5] = second compound 0.316 µM, first compound 0.0316 µM
[6] = second compound 0.316 µM, first compound 0.1 µM
[7] = second compound 0.316 µM, first compound 0.316 µM
[8] = second compound 0.316 µM, first compound 1 µM
[9] = second compound 1 µM, first compound 0.0316 µM
[10] = second compound 1 µM, first compound 0.1 µM
[11] = second compound 1 µM, first compound 0.316 µM
[12] = second compound 1 µM, first compound 1 µM
[13] = second compound 3.16 µM, first compound 0.0316 µM
[14] = second compound 3.16 µM, first compound 0.1 µM
[15] = second compound 3.16 µM, first compound 0.316 µM
[16] = second compound 3.16 µM, first compound 1 µM
[17] = second compound 10 µM, first compound 0.0316 µM
[18] = second compound 10 µM, first compound 0.1 µM
[19] = second compound 10 µM, first compound 0.316 µM
[20] = second compound 10 µM, first compound 1 µM
[21] = second compound 0.1 µM, first compound 0.00316 µM
[22] = second compound 0.1 µM, first compound 0.01 µM
[23] = second compound 0.316 µM, first compound 0.00316 µM
[24] = second compound 0.316 µM, first compound 0.01 µM
[25] = second compound 1 µM, first compound 0.00316 µM
[26] = second compound 1 µM, first compound 0.01 µM
[27] = second compound 3.16 µM, first compound 0.00316 µM
[28] = second compound 3.16 µM, first compound 0.01 µM
[29] = second compound 10 µM, first compound 0.00316 µM
[30] = second compound 10 µM, first compound 0.01 µM
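Further: spheroids exposed to compound for 7 days after 3 days of growth.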
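Wherever viability, T/C is given: 100% = DMSO vehicle control wells.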

Q: What does the source list for `C=CC(=O)N1CCN(c2nc(=O)n(-c3c(C)ccnc3C(C)C)c3nc(-c4c(O)cccc4F)c(F)cc23)C(C)C1` (stereo not given) + Cc1c(S(C)(=O)=O)c(-c2cc(F)cc(N3CCN(c4ccc(NS(=O)(=O)c5ccc(NC(CCN6CCC(C(=O)OCCCP(=O)(O)O)CC6)CSc6ccccc6)c(S(=O)(=O)C(F)(F)F)c5)cc4)CC3)c2)c(-c2ccc(Cl)cc2)n1C(C)C?
A: IC50 (second compound 0.1 µM): > 10 µM; IC50 (second compound 0.316 µM): > 10 µM; IC50 (second compound 1 µM): > 10 µM; IC50 (second compound 3.16 µM): > 10 µM; IC50 (second compound 10 µM): > 10 µM; viability, T/C [1]: 78.9%; viability, T/C [2]: 68.5%; viability, T/C [3]: 66.7%; viability, T/C [4]: 69.5%; viability, T/C (second compound 0.1 µM, first compound 3.16 µM): 63.4%; viability, T/C (second compound 0.1 µM, first compound 10 µM): 64.8%; viability, T/C [5]: 73.5%; viability, T/C [6]: 71.6%; viability, T/C [7]: 62.4%; viability, T/C [8]: 63.2%; viability, T/C (second compound 0.316 µM, first compound 3.16 µM): 60.2%; viability, T/C (second compound 0.316 µM, first compound 10 µM): 56.4%; viability, T/C [9]: 83.2%; viability, T/C [10]: 71.9%; viability, T/C [11]: 60.7%; viability, T/C [12]: 71.2%; viability, T/C (second compound 1 µM, first compound 3.16 µM): 62.1%; viability, T/C (second compound 1 µM, first compound 10 µM): 64.7%; viability, T/C [13]: 84.6%; viability, T/C [14]: 72.4%; viability, T/C [15]: 62.4%; viability, T/C [16]: 67.4%; viability, T/C (second compound 3.16 µM, first compound 3.16 µM): 65.4%; viability, T/C (second compound 3.16 µM, first compound 10 µM): 48.3%; viability, T/C [17]: 179%; viability, T/C [18]: 164%; viability, T/C [19]: 164%; viability, T/C [20]: 136%; viability, T/C (second compound 10 µM, first compound 3.16 µM): 167%; viability, T/C (second compound 10 µM, first compound 10 µM): 151%

Q: For `COc1c(OCCCN2CCOCC2)ccc2c3n(c(=NC(=O)c4cnc(N)nc4)nc12)CCN3` + Cc1c(S(C)(=O)=O)c(-c2cc(F)cc(N3CCN(c4ccc(NS(=O)(=O)c5ccc(NC(CCN6CCC(C(=O)OCCCP(=O)(O)O)CC6)CSc6ccccc6)c(S(=O)(=O)C(F)(F)F)c5)cc4)CC3)c2)c(-c2ccc(Cl)cc2)n1C(C)C, which IC50 (second compound 0.1 µM) is on record?
A: Its IC50 is 0.104 µM.

Q: What about the IC50 (second compound 0.316 µM) of the same compound?
A: Its IC50 is 0.0965 µM.

Q: And the IC50 (second compound 1 µM)?
A: The IC50 was 0.0792 µM.

Q: And the IC50 (second compound 3.16 µM)?
A: The IC50 was 0.0864 µM.

Q: And the IC50 (second compound 10 µM)?
A: The IC50 was 0.168 µM.

Q: What about the viability, T/C [21] of the same compound?
A: Its viability, T/C is 81.3%.

Q: What about the viability, T/C [22] of the same compound?
A: Its viability, T/C is 91.2%.

Q: What about the viability, T/C [1] of the same compound?
A: The viability, T/C was 80.3%.

Q: What about the viability, T/C [2] of the same compound?
A: The viability, T/C was 46.8%.

Q: What about the viability, T/C [3] of the same compound?
A: The viability, T/C was 24.6%.

Q: And the viability, T/C [4]?
A: The viability, T/C was 5.06%.

Q: What about the viability, T/C [23] of the same compound?
A: Its viability, T/C is 91.3%.

Q: And the viability, T/C [24]?
A: The viability, T/C was 84.4%.

Q: What about the viability, T/C [5] of the same compound?
A: The viability, T/C was 77.2%.

Q: And the viability, T/C [6]?
A: Its viability, T/C is 48.7%.

Q: And the viability, T/C [7]?
A: The viability, T/C was 18.9%.

Q: What about the viability, T/C [8] of the same compound?
A: Its viability, T/C is 4.02%.

Q: What about the viability, T/C [25] of the same compound?
A: The viability, T/C was 91.1%.

Q: And the viability, T/C [26]?
A: Its viability, T/C is 83.6%.

Q: What about the viability, T/C [9] of the same compound?
A: Its viability, T/C is 63.9%.

Q: And the viability, T/C [10]?
A: The viability, T/C was 48.7%.

Q: And the viability, T/C [11]?
A: The viability, T/C was 20.8%.

Q: And the viability, T/C [12]?
A: The viability, T/C was 3.26%.

Q: And the viability, T/C [27]?
A: Its viability, T/C is 91.5%.

Q: And the viability, T/C [28]?
A: The viability, T/C was 79.2%.

Q: What about the viability, T/C [13] of the same compound?
A: The viability, T/C was 72.2%.

Q: What about the viability, T/C [14] of the same compound?
A: Its viability, T/C is 48.9%.

Q: What about the viability, T/C [15] of the same compound?
A: The viability, T/C was 16.1%.

Q: And the viability, T/C [16]?
A: Its viability, T/C is 2.71%.

Q: What about the viability, T/C [29] of the same compound?
A: Its viability, T/C is 166%.

Q: What about the viability, T/C [30] of the same compound?
A: Its viability, T/C is 169%.

Q: And the viability, T/C [17]?
A: The viability, T/C was 151%.

Q: And the viability, T/C [18]?
A: The viability, T/C was 73%.

Q: And the viability, T/C [19]?
A: Its viability, T/C is 24%.

Q: What about the viability, T/C [20] of the same compound?
A: The viability, T/C was 4.08%.

Q: What does the source list for `NC(=O)C(=Cn1cnc(-c2cc(C(F)(F)F)cc(C(F)(F)F)c2)n1)c1cncnc1` + Cc1c(S(C)(=O)=O)c(-c2cc(F)cc(N3CCN(c4ccc(NS(=O)(=O)c5ccc(NC(CCN6CCC(C(=O)OCCCP(=O)(O)O)CC6)CSc6ccccc6)c(S(=O)(=O)C(F)(F)F)c5)cc4)CC3)c2)c(-c2ccc(Cl)cc2)n1C(C)C?
A: IC50 (second compound 0.1 µM): 0.0364 µM; IC50 (second compound 0.316 µM): 0.0394 µM; IC50 (second compound 1 µM): 0.0312 µM; IC50 (second compound 3.16 µM): 0.0305 µM; IC50 (second compound 10 µM): 0.0466 µM; viability, T/C (second compound 0.1 µM, first compound 0.000949 µM): 88.6%; viability, T/C (second compound 0.1 µM, first compound 0.003 µM): 91.2%; viability, T/C (second compound 0.1 µM, first compound 0.00949 µM): 84.6%; viability, T/C (second compound 0.1 µM, first compound 0.03 µM): 58.4%; viability, T/C (second compound 0.1 µM, first compound 0.0949 µM): 9.68%; viability, T/C (second compound 0.1 µM, first compound 0.3 µM): 0.77%; viability, T/C (second compound 0.316 µM, first compound 0.000949 µM): 98.2%; viability, T/C (second compound 0.316 µM, first compound 0.003 µM): 93.3%; viability, T/C (second compound 0.316 µM, first compound 0.00949 µM): 86.8%; viability, T/C (second compound 0.316 µM, first compound 0.03 µM): 64.3%; viability, T/C (second compound 0.316 µM, first compound 0.0949 µM): 4.86%; viability, T/C (second compound 0.316 µM, first compound 0.3 µM): 0.51%; viability, T/C (second compound 1 µM, first compound 0.000949 µM): 99.7%; viability, T/C (second compound 1 µM, first compound 0.003 µM): 94.6%; viability, T/C (second compound 1 µM, first compound 0.00949 µM): 87.1%; viability, T/C (second compound 1 µM, first compound 0.03 µM): 53.1%; viability, T/C (second compound 1 µM, first compound 0.0949 µM): 3.7%; viability, T/C (second compound 1 µM, first compound 0.3 µM): 1.44%; viability, T/C (second compound 3.16 µM, first compound 0.000949 µM): 95.8%; viability, T/C (second compound 3.16 µM, first compound 0.003 µM): 90.7%; viability, T/C (second compound 3.16 µM, first compound 0.00949 µM): 93.4%; viability, T/C (second compound 3.16 µM, first compound 0.03 µM): 50.5%; viability, T/C (second compound 3.16 µM, first compound 0.0949 µM): 4.58%; viability, T/C (second compound 3.16 µM, first compound 0.3 µM): 0.43%; viability, T/C (second compound 10 µM, first compound 0.000949 µM): 168%; viability, T/C (second compound 10 µM, first compound 0.003 µM): 168%; viability, T/C (second compound 10 µM, first compound 0.00949 µM): 168%; viability, T/C (second compound 10 µM, first compound 0.03 µM): 78.8%; viability, T/C (second compound 10 µM, first compound 0.0949 µM): 4.73%; viability, T/C (second compound 10 µM, first compound 0.3 µM): 0.54%

Q: What does the source list for `NC1CCC(NC2CC2c2ccccc2)CC1` (stereo not given) + Cc1c(S(C)(=O)=O)c(-c2cc(F)cc(N3CCN(c4ccc(NS(=O)(=O)c5ccc(NC(CCN6CCC(C(=O)OCCCP(=O)(O)O)CC6)CSc6ccccc6)c(S(=O)(=O)C(F)(F)F)c5)cc4)CC3)c2)c(-c2ccc(Cl)cc2)n1C(C)C?
A: IC50 (second compound 0.1 µM): > 0.1 µM; IC50 (second compound 0.316 µM): > 0.1 µM; IC50 (second compound 1 µM): > 0.1 µM; IC50 (second compound 3.16 µM): > 0.1 µM; IC50 (second compound 10 µM): > 0.1 µM; viability, T/C (second compound 0.1 µM, first compound 0.000316 µM): 98.9%; viability, T/C (second compound 0.1 µM, first compound 0.001 µM): 109%; viability, T/C [21]: 104%; viability, T/C [22]: 95.6%; viability, T/C [1]: 100%; viability, T/C [2]: 98%; viability, T/C (second compound 0.316 µM, first compound 0.000316 µM): 89.6%; viability, T/C (second compound 0.316 µM, first compound 0.001 µM): 99.5%; viability, T/C [23]: 95%; viability, T/C [24]: 88.3%; viability, T/C [5]: 93.8%; viability, T/C [6]: 95.5%; viability, T/C (second compound 1 µM, first compound 0.000316 µM): 94.2%; viability, T/C (second compound 1 µM, first compound 0.001 µM): 96.6%; viability, T/C [25]: 90.4%; viability, T/C [26]: 91.5%; viability, T/C [9]: 96.8%; viability, T/C [10]: 90.6%; viability, T/C (second compound 3.16 µM, first compound 0.000316 µM): 98.9%; viability, T/C (second compound 3.16 µM, first compound 0.001 µM): 91.4%; viability, T/C [27]: 92.6%; viability, T/C [28]: 86.3%; viability, T/C [13]: 96.8%; viability, T/C [14]: 90.1%; viability, T/C (second compound 10 µM, first compound 0.000316 µM): 177%; viability, T/C (second compound 10 µM, first compound 0.001 µM): 173%; viability, T/C [29]: 160%; viability, T/C [30]: 158%; viability, T/C [17]: 168%; viability, T/C [18]: 181%
